One series deals with Vero. The series is described as follows: Compound was tested for its antiviral activity against HSV-1(KOS strain) in vero cells. In kind it is functional, cell-based. The conditions noted are these: Chlorocebus sabaeus.
Series [1] in a line: Half life was measured […] at 37 degree Celsius temperature by HPLC assay using a c18 reversed-phase column. Type of series: ADME.
The nature of series [2]: Half life was measured at pH 7.4 and at 37 degree Celsius temperature. In kind it is ADME.
Series [3] can be described thus: Half life was measured at pH 8.0 and at 37 degree Celsius temperature. In kind it is ADME.
The test system of another series is Mus musculus. The experiment in a line: Compound was tested to determine the total amount of penciclovir recovered in the urine over a 48-h period after a single oral dose of 0.2 mmol/kg. In kind it is functional.
Series [4] can be described thus: Half life was measured at pH 1.0 and at 37 degree Celsius temperature. In kind it is ADME.

For the compound `CCCC(=O)OCC(CCn1cnc2c(O)nc(N)nc21)COC(=O)[C@@H](N)C(C)C.Cl` (some centres undefined), the EC50 (usually the concentration needed to bring the measured effect to its halfway point) with Vero was 42 µM. The half-life (in general, the time in which the quantity being followed falls by half) is 122 h in series [1], 18.4 h in series [2], 14.1 h in series [3] and 33.3 h in series [4]. Further, the “Dose (urinary recovery)” value in the series with Mus musculus turned out to be 29%.

In the case of `CC(C)C(=O)OCC(CCn1cnc2c(O)nc(N)nc21)COC(=O)[C@@H](N)C(C)C.Cl` (some centres undefined), in the series on Vero, the EC50 is > 100 µM. Further, the half-life was 120 h in series [1], 19.1 h in series [2], 14.4 h in series [3] and 47.5 h in series [4]. Besides, in the series with Mus musculus, the “Dose (urinary recovery)” value was 20%.

Take `CCC(C)[C@H](N)C(=O)OCC(CCn1cnc2c(O)nc(N)nc21)COC(=O)[C@@H](N)C(C)CC.Cl.Cl` (some centres undefined): in the series on Vero, the EC50 was 42.3 µM. Further, the half-life was 52.9 h in series [1], 11.4 h in series [2], 9.8 h in series [3] and > 168 h in series [4]. For the same compound, in the series on Mus musculus, the “Dose (urinary recovery)” value is recorded as 9%.

Compound `CC(C)[C@H](N)C(=O)OCC(CCn1cnc2c(O)nc(N)nc21)COC(=O)[C@@H](N)C(C)C.Cl.Cl` came in with a 50% effective concentration (EC50) in the series with Vero of 25.5 µM. Also, the half-life in series [1] was 30.9 h; in series [2], 6.7 h; in series [3] it was 6 h; in series [4] it was > 168 h. In addition, the “Dose (urinary recovery)” value with Mus musculus was found to be 25%.

Consider `CCC(C)[C@H](N)C(=O)OCC(CCn1cnc2c(O)nc(N)nc21)COC(C)=O.Cl` (some centres undefined), for which the EC50 in the series on Vero is > 100 µM. Further, the half-life in series [1] is 105 h; in series [2] it was 24.8 h; in series [3] it was 19.1 h; in series [4], 19.4 h. The “Dose (urinary recovery)” value with Mus musculus came out at 15%.

As for `CCC(=O)OCC(CCn1cnc2c(O)nc(N)nc21)COC(=O)[C@@H](N)C(C)C.Cl` (some centres undefined), in the series on Vero, the concentration giving a half-maximal response (EC50) is > 100 µM. The half-life in series [1] is 104 h; in series [2] it was 17.3 h; in series [3], 13.6 h; in series [4], 19.2 h. Moreover, the “Dose (urinary recovery)” value in the series with Mus musculus came to 25%.

`CC(=O)OCC(CCn1cnc2c(O)nc(N)nc21)COC(=O)[C@@H](N)C(C)C.Cl` (some centres undefined): the EC50 in the series with Vero was > 100 µM. Besides, the half-life in series [1] was 108 h; in series [2], 13.2 h; in series [3], 13.2 h; in series [4] it was 19.4 h. Also, in the series with Mus musculus, the “Dose (urinary recovery)” value is reported as 34%.

For the compound `CCC(C)[C@H](N)C(=O)OCC(CCn1cnc2c(O)nc(N)nc21)COC(=O)C(C)C.Cl` (some centres undefined), the EC50 with Vero is > 100 µM. Besides, the half-life in series [1] was 83.5 h; in series [2], 24.9 h; in series [3] it was 19.4 h; in series [4], 46.5 h. Also, in the series with Mus musculus, the “Dose (urinary recovery)” value is listed as 13%.

As to `CCCC(=O)OCC(CCn1cnc2c(O)nc(N)nc21)COC(=O)[C@@H](N)C(C)CC.Cl` (some centres undefined), the response with Vero was half-maximal at 24.2 µM (EC50). Further, the half-life is 93.7 h in series [1], 27 h in series [2], 19.9 h in series [3] and 34 h in series [4]. For the same compound, the “Dose (urinary recovery)” value with Mus musculus is 19%.

As for `CCC(=O)OCC(CCn1cnc2c(O)nc(N)nc21)COC(=O)[C@@H](N)C(C)CC.Cl` (some centres undefined), in the series with Vero, the EC50 was > 100 µM. The half-life in series [1] is 83.5 h; in series [2], 25 h; in series [3] it was 19.9 h; in series [4], 19 h. The “Dose (urinary recovery)” value in the series on Mus musculus is on record as 20%.

On to `CC(=O)OCC(CCn1cnc2cnc(N)nc21)COC(C)=O` [FAMCICLOVIR], for which, in the series with Vero, the EC50 was > 100 µM. For the same compound, the “Dose (urinary recovery)” value in the series on Mus musculus was found to be 33%.

In turn, `Nc1nc(O)c2ncn(CCC(CO)CO)c2n1` [PENCICLOVIR] gave an EC50 with Vero of 8.1 µM. Also, the “Dose (urinary recovery)” value in the series on Mus musculus was determined as 9%.

The record behind these values is ChEMBL document CHEMBL1129136, “Synthesis and evaluation of amino acid ester prodrugs of penciclovir” (Bioorg Med Chem Lett, 1996).
